System: yeast genes (expressed mRNA)
Assay: DNA chip measurement of expressed mRNA of yeast genes after culture with a toxic chemical substance
Format: cell-based, Saccharomyces cerevisiae S288C
Conditions: for level of expressed mRNA in the presence of chemical substance / level in the absence of chemical substance: cultured two hours with the chemical substance; for The level of expressed mRNA in the presence of chemical substance/The level of expressed mRNA in the absence of chemical substance: cultured two hours with substance
Procedure, shortened: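 Two-hour exposure of growing S. cerevisiae S288C (YPD, 25° C) to a sublethal toxicant preceded RNA isolation. Fluorescent cDNA was hybridized to a whole-genome array; a treated-to-untreated signal ratio of two or more was taken as significant.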

Question: For `[Cl][Hg][Cl]` [(3), HgCl2], which “The level of expressed mRNA in the presence of chemical substance/The level of expressed mRNA in the absence of chemical substance, yeast gene YBR036C” value (gene YBR036C, Metabolism protein genes, DNA chip fluorescence ratio) is on record?
Answer: The value was 1.8.

Question: And the “The level of expressed mRNA in the presence of chemical substance/The level of expressed mRNA in the absence of chemical substance, yeast gene YBR298C” value (gene YBR298C, Metabolism protein genes, DNA chip fluorescence ratio)?
Answer: Its value is 1.6.

Question: What about the “The level of expressed mRNA in the presence of chemical substance/The level of expressed mRNA in the absence of chemical substance, yeast gene YDL067C” value (gene YDL067C (mitochondria-located protein gene), yeast cultured two hours with chemical substance, DNA chip fluorescence ratio to control) of the same compound?
Answer: Its value is 1.6.

Question: And the “The level of expressed mRNA in the presence of chemical substance/The level of expressed mRNA in the absence of chemical substance, yeast gene YDL078C” value (gene YDL078C, Metabolism protein genes, DNA chip fluorescence ratio)?
Answer: The value was 1.2.

Question: What about the “The level of expressed mRNA in the presence of chemical substance/The level of expressed mRNA in the absence of chemical substance, yeast gene YDL215C” value (gene YDL215C, Metabolism protein genes, DNA chip fluorescence ratio) of the same compound?
Answer: The value was 1.0.

Question: What about the “The level of expressed mRNA in the presence of chemical substance/The level of expressed mRNA in the absence of chemical substance, yeast gene YDR079W” value (gene YDR079W (mitochondria-located protein gene), yeast cultured two hours with chemical substance, DNA chip fluorescence ratio to control) of the same compound?
Answer: Its value is 0.8.

Question: And the “The level of expressed mRNA in the presence of chemical substance/The level of expressed mRNA in the absence of chemical substance, yeast gene YDR297W” value (gene YDR297W, Metabolism protein genes, DNA chip fluorescence ratio)?
Answer: The value was 0.8.

Question: What about the “The level of expressed mRNA in the presence of chemical substance/The level of expressed mRNA in the absence of chemical substance, yeast gene YDR387C” value (gene YDR387C, Metabolism protein genes, DNA chip fluorescence ratio) of the same compound?
Answer: The value was 1.2.

Question: And the “The level of expressed mRNA in the presence of chemical substance/The level of expressed mRNA in the absence of chemical substance, yeast gene YGL035C” value (gene YGL035C, Metabolism protein genes, DNA chip fluorescence ratio)?
Answer: The value was 4.3.

Question: What about the “The level of expressed mRNA in the presence of chemical substance/The level of expressed mRNA in the absence of chemical substance, yeast gene YGR062C” value (gene YGR062C (mitochondria-located protein gene), yeast cultured two hours with chemical substance, DNA chip fluorescence ratio to control) of the same compound?
Answer: Its value is 0.7.

Question: And the “The level of expressed mRNA in the presence of chemical substance/The level of expressed mRNA in the absence of chemical substance, yeast gene YGR287C” value (gene YGR287C, Metabolism protein genes, DNA chip fluorescence ratio)?
Answer: Its value is 1.3.

Question: What about the “The level of expressed mRNA in the presence of chemical substance/The level of expressed mRNA in the absence of chemical substance, yeast gene YJL070C” value (gene YJL070C, Metabolism protein genes, DNA chip fluorescence ratio) of the same compound?
Answer: Its value is 1.1.

Question: What about the “The level of expressed mRNA in the presence of chemical substance/The level of expressed mRNA in the absence of chemical substance, yeast gene YJL096W” value (gene YJL096W (mitochondria-located protein gene), yeast cultured two hours with chemical substance, DNA chip fluorescence ratio to control) of the same compound?
Answer: Its value is 0.8.

Question: And the “The level of expressed mRNA in the presence of chemical substance/The level of expressed mRNA in the absence of chemical substance, yeast gene YJL180C” value (gene YJL180C (mitochondria-located protein gene), yeast cultured two hours with chemical substance, DNA chip fluorescence ratio to control)?
Answer: Its value is 1.1.

Question: What about the “The level of expressed mRNA in the presence of chemical substance/The level of expressed mRNA in the absence of chemical substance, yeast gene YKR009C” value (gene YKR009C, Metabolism protein genes, DNA chip fluorescence ratio) of the same compound?
Answer: The value was 1.5.

Question: And the “The level of expressed mRNA in the presence of chemical substance/The level of expressed mRNA in the absence of chemical substance, yeast gene YLR295C” value (gene YLR295C (mitochondria-located protein gene), yeast cultured two hours with chemical substance, DNA chip fluorescence ratio to control)?
Answer: Its value is 1.1.

Question: And the “The level of expressed mRNA in the presence of chemical substance/The level of expressed mRNA in the absence of chemical substance, yeast gene YLR351C” value (gene YLR351C, Metabolism protein genes, DNA chip fluorescence ratio)?
Answer: Its value is 1.3.

Question: What about the “The level of expressed mRNA in the presence of chemical substance/The level of expressed mRNA in the absence of chemical substance, yeast gene YLR375W” value (gene YLR375W, Metabolism protein genes, DNA chip fluorescence ratio) of the same compound?
Answer: The value was 0.9.

Question: And the “The level of expressed mRNA in the presence of chemical substance/The level of expressed mRNA in the absence of chemical substance, yeast gene YMR023C” value (gene YMR023C (mitochondria-located protein gene), yeast cultured two hours with chemical substance, DNA chip fluorescence ratio to control)?
Answer: Its value is 0.5.

Question: And the “The level of expressed mRNA in the presence of chemical substance/The level of expressed mRNA in the absence of chemical substance, yeast gene YMR267W” value (gene YMR267W (mitochondria-located protein gene), yeast cultured two hours with chemical substance, DNA chip fluorescence ratio to control)?
Answer: The value was 0.7.

Question: What about the “The level of expressed mRNA in the presence of chemical substance/The level of expressed mRNA in the absence of chemical substance, yeast gene YMR267W” value (gene YMR267W, Metabolism protein genes, DNA chip fluorescence ratio) of the same compound?
Answer: The value was 0.7.

Question: And the “The level of expressed mRNA in the presence of chemical substance/The level of expressed mRNA in the absence of chemical substance, yeast gene YMR278W” value (gene YMR278W, Metabolism protein genes, DNA chip fluorescence ratio)?
Answer: Its value is 1.4.

Question: What about the “The level of expressed mRNA in the presence of chemical substance/The level of expressed mRNA in the absence of chemical substance, yeast gene YMR293C” value (gene YMR293C, Metabolism protein genes, DNA chip fluorescence ratio) of the same compound?
Answer: Its value is 1.6.

Question: And the “The level of expressed mRNA in the presence of chemical substance/The level of expressed mRNA in the absence of chemical substance, yeast gene YNL073W” value (gene YNL073W (mitochondria-located protein gene), yeast cultured two hours with chemical substance, DNA chip fluorescence ratio to control)?
Answer: Its value is 0.9.

Question: And the “The level of expressed mRNA in the presence of chemical substance/The level of expressed mRNA in the absence of chemical substance, yeast gene YNR072W” value (gene YNR072W, Metabolism protein genes, DNA chip fluorescence ratio)?
Answer: Its value is 0.5.

Question: What about the “The level of expressed mRNA in the presence of chemical substance/The level of expressed mRNA in the absence of chemical substance, yeast gene YOL096C” value (gene YOL096C, Metabolism protein genes, DNA chip fluorescence ratio) of the same compound?
Answer: Its value is 1.2.

Question: And the “The level of expressed mRNA in the presence of chemical substance/The level of expressed mRNA in the absence of chemical substance, yeast gene YOR180C” value (gene YOR180C, Metabolism protein genes, DNA chip fluorescence ratio)?
Answer: The value was 1.0.

Question: And the “The level of expressed mRNA in the presence of chemical substance/The level of expressed mRNA in the absence of chemical substance, yeast gene YOR316C” value (gene YOR316C (mitochondria-located protein gene), yeast cultured two hours with chemical substance, DNA chip fluorescence ratio to control)?
Answer: Its value is 1.5.

Question: And the “The level of expressed mRNA in the presence of chemical substance/The level of expressed mRNA in the absence of chemical substance, yeast gene YOR363C” value (gene YOR363C, Metabolism protein genes, DNA chip fluorescence ratio)?
Answer: The value was 0.9.

Question: What about the “The level of expressed mRNA in the presence of chemical substance/The level of expressed mRNA in the absence of chemical substance, yeast gene YPL040C” value (gene YPL040C (mitochondria-located protein gene), yeast cultured two hours with chemical substance, DNA chip fluorescence ratio to control) of the same compound?
Answer: The value was 0.8.

Question: What about the “The level of expressed mRNA in the presence of chemical substance/The level of expressed mRNA in the absence of chemical substance, yeast gene YPL134C” value (gene YPL134C (mitochondria-located protein gene), yeast cultured two hours with chemical substance, DNA chip fluorescence ratio to control) of the same compound?
Answer: The value was 1.6.

Question: What about the “The level of expressed mRNA in the presence of chemical substance/The level of expressed mRNA in the absence of chemical substance, yeast gene YPR184W” value (gene YPR184W, Metabolism protein genes, DNA chip fluorescence ratio) of the same compound?
Answer: Its value is 5.7.

Question: And the “level of expressed mRNA in the presence of chemical substance / level in the absence of chemical substance” value (yeast gene YAL018C)?
Answer: Its value is 1.1.

Question: And the “The level of expressed mRNA in the presence of chemical substance/The level of expressed mRNA in the absence of chemical substance” value (yeast gene YAL053W)?
Answer: The value was 1.3.

Question: And the “level of expressed mRNA in the presence of chemical substance / level in the absence of chemical substance” value (yeast gene YAR047C)?
Answer: Its value is 1.5.

Question: And the “level of expressed mRNA in the presence of chemical substance / level in the absence of chemical substance” value (yeast gene YAR064W)?
Answer: The value was 0.9.

Question: And the “level of expressed mRNA in the presence of chemical substance / level in the absence of chemical substance” value (yeast gene YBL044W)?
Answer: The value was 2.1.

Question: What about the “The level of expressed mRNA in the presence of chemical substance/The level of expressed mRNA in the absence of chemical substance” value (yeast gene YBL048W) of the same compound?
Answer: The value was 2.3.

Question: What about the “The level of expressed mRNA in the presence of chemical substance/The level of expressed mRNA in the absence of chemical substance” value (yeast gene YBL107C) of the same compound?
Answer: Its value is 0.4.

Question: And the “level of expressed mRNA in the presence of chemical substance / level in the absence of chemical substance” value (yeast gene YBR012C)?
Answer: The value was 1.3.

Question: And the “level of expressed mRNA in the presence of chemical substance / level in the absence of chemical substance” value (yeast gene YBR066C)?
Answer: Its value is 1.6.

Question: What about the “level of expressed mRNA in the presence of chemical substance / level in the absence of chemical substance” value (yeast gene YBR124W) of the same compound?
Answer: Its value is 1.5.

Question: And the “level of expressed mRNA in the presence of chemical substance / level in the absence of chemical substance” value (yeast gene YBR162C)?
Answer: Its value is 3.1.

Question: What about the “level of expressed mRNA in the presence of chemical substance / level in the absence of chemical substance” value (yeast gene YBR287W) of the same compound?
Answer: Its value is 3.1.

Question: What about the “level of expressed mRNA in the presence of chemical substance / level in the absence of chemical substance” value (yeast gene YCL042W) of the same compound?
Answer: Its value is 7.2.

Question: What about the “level of expressed mRNA in the presence of chemical substance / level in the absence of chemical substance” value (yeast gene YCL056C) of the same compound?
Answer: Its value is 0.7.

Question: And the “level of expressed mRNA in the presence of chemical substance / level in the absence of chemical substance” value (yeast gene YCR007C)?
Answer: Its value is 0.9.

Question: And the “level of expressed mRNA in the presence of chemical substance / level in the absence of chemical substance” value (yeast gene YDL046W)?
Answer: Its value is 5.1.

Question: What about the “The level of expressed mRNA in the presence of chemical substance/The level of expressed mRNA in the absence of chemical substance” value (yeast gene YDL072C) of the same compound?
Answer: The value was 3.5.

Question: What about the “The level of expressed mRNA in the presence of chemical substance/The level of expressed mRNA in the absence of chemical substance” value (yeast gene YDL204W) of the same compound?
Answer: The value was 4.8.

Question: And the “The level of expressed mRNA in the presence of chemical substance/The level of expressed mRNA in the absence of chemical substance” value (yeast gene YDL222C)?
Answer: Its value is 1.5.

Question: And the “level of expressed mRNA in the presence of chemical substance / level in the absence of chemical substance” value (yeast gene YDR090C)?
Answer: The value was 0.8.
